The source of these data is article PMC9964023 (Marine Drugs, 2023).

Common to all, as to assay: biochemical
Assay [1] deals with T1, dopamine transporter (DAT) (Rattus norvegicus, UniProt P23977).
T1 construct: brains were processed to yield synaptosomes as previously described; from tissue; host or cells: rat caudate synaptosomes

The target of assay [2] is T2, norepinephrine transporter (NET) (Rattus norvegicus, UniProt Q63380).
T2 construct: brains were processed to yield synaptosomes as previously described; from tissue; host or cells: rat whole brain minus caudate and cerebellum, synaptosomes
The assay is classed as biochemical.

Assay [3] concerns the target T3, serotonin transporter (SERT) (Rattus norvegicus, UniProt P31652).
T3 construct: brains were processed to yield synaptosomes as previously described; from tissue; host or cells: rat whole brain minus caudate and cerebellum, synaptosomes

Molecules are shown by their SMILES. pIC50: −log10 of the molar value. Bridge positions count the residues as written; N and C are the ends. Peptide text beside a SMILES is read from it. Where only a bound is given, the exact number is not on record here.

T2 sequence (Q63380 1-617): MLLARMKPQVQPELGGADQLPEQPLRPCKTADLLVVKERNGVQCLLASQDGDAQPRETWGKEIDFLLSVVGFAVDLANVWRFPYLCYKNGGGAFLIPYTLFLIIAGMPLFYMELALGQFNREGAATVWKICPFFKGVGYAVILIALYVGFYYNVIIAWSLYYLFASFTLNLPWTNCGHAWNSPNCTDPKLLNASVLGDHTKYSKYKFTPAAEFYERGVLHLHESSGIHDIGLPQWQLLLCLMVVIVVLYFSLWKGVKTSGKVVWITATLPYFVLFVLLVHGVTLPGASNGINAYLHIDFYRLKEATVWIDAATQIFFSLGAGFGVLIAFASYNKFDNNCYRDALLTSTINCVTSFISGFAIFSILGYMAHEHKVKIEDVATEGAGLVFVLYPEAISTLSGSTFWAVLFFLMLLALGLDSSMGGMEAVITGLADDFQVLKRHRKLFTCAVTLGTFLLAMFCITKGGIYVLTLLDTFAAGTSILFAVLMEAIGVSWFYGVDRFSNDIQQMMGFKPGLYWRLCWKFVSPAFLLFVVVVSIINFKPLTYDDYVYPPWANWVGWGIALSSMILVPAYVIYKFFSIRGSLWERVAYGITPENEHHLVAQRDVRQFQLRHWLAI
T3 sequence (P31652 whole entry): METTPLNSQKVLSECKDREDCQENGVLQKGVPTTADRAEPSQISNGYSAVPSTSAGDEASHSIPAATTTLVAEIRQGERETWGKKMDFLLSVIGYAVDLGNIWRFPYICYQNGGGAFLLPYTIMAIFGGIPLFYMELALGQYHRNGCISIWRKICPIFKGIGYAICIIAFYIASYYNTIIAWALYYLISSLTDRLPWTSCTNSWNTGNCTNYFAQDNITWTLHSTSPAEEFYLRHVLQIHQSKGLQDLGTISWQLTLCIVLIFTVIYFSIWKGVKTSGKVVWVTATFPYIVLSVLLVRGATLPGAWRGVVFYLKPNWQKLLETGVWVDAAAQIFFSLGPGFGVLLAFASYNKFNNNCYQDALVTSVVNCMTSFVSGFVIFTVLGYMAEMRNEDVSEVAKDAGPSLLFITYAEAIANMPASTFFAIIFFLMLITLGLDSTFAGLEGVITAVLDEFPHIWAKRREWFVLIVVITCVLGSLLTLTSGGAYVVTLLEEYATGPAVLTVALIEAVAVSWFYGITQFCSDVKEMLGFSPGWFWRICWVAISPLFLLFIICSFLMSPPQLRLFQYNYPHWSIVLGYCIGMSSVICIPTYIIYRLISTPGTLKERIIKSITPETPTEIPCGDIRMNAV
T1 sequence (P23977 whole entry): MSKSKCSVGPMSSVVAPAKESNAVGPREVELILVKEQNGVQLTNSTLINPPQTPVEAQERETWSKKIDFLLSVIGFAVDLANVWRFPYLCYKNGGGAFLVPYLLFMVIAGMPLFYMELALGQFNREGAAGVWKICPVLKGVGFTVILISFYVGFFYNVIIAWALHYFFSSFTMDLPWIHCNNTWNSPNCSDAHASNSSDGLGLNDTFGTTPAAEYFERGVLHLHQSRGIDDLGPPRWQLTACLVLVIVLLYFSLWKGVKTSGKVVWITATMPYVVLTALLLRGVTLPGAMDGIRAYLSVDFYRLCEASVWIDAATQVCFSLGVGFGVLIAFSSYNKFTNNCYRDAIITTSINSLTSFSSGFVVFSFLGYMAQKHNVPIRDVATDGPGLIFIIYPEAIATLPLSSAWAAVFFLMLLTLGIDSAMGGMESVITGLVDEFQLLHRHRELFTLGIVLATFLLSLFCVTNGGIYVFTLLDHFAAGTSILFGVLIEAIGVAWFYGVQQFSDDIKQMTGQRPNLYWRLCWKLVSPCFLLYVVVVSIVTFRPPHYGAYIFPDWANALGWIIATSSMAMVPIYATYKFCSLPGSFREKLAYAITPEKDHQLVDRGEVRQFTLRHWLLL

A word on the pIC50: it is the IC50 on a negative log10 scale, so that one unit is a factor of ten. In assay [1], `CSCC[C@H](NC(=O)[C@H](CCCNC(=N)N)NC(=O)[C@H](Cc1ccc(O)cc1)NC(=O)CNC(=O)[C@@H]1CSSC[C@H](NC(=O)[C@@H](NC(=O)[C@@H](N)CO)[C@@H](C)O)C(=O)N1)C(=O)N[C@H]1CSSC[C@@H](C(N)=O)NC(=O)[C@@H]2CCCN2C(=O)[C@H](C(C)C)NC1=O` [PnID C] (H-STCCGYRMCVPC-NH2; disulfide 3-4, 9-12; N-terminus assumed) had a pIC50 of under 4.00. For the same molecule, in assay [2], the pIC50 is under 4.00, the “activity at NET relative to ribbon isomer (in words)” value is “much less active in inhibiting the rat NET” and the “biological activity (in words)” value is reported as “did not display any measurable biological activity”. In addition, in assay [3], the pIC50 is under 4.00.
